# Data as given in US5801222A, “Isolation and structure of the human cancer cell growth inhibitory cyclic octapeptides phakellistatin 10 and 11” (Arizona Board of Regents acting on behalf of Arizona State …, priority 1994, dated 1998).
# Residues, ends and D or L forms follow the SMILES beside them.
# Tests used:
# [1] = system: NCI's 60-cell line human tumor panel; assay: NCI 60-cell line human tumor in vitro screen; assay type: cell-based; settings: 60-cell line panel; 10^-5 M high test concentration, log10 dilutions; 48 hours; read-out: overall panel-averaged GI50 concentration
# Excerpt: The following measures are used to express drug activity by giving the drug dose which reduces cell growth to a specified percentage of growth:
# ED50 (P388) and GI50 (HTCL) are the drug doses needed to reduce the percent growth to 50%. There is no mathematical difference between ED50 and GI50, which are both calculated using the same formula. The only difference is historical usage.
# Total Growth Inhibition ("TGI") is the drug dose needed to yield zero percent growth, i.e., just as many cells at the end of the experiment as were present in the beginning. Whether just as many cells were killed as were produced (steady state), or no growth occurred (total inhibition), cannot be distinguished. […]
# Percent Growths are calculated for each dose. […]
# (§1) At the start of an experiment, cells from the in vitro cell cultures are inoculated into the appropriate tubes or microtiter plates. One set of control tubes/plates is immediately counted to determine the number of cells at the start of the experiment. This is the "baseline count", or "Tzero reading". At the end of the experiment (48 hours later) a second set of control tubes/plates is analyzed to determine the "Control Growth" value. The growth (or death) of cells relative to the initial quantity of cells is used to define the "Percent of Growth". […]
# [2] = system: MDA-MB-435 breast cancer cell line; assay: NCI in vitro screen, MDA-MB-435; assay type: cell-based, human
# Excerpt: (§2) Total Growth Inhibition ("TGI") is the drug dose needed to yield zero percent growth, i.e., just as many cells at the end of the experiment as were present in the beginning. Whether just as many cells were killed as were produced (steady state), or no growth occurred (total inhibition), cannot be distinguished.
# (§3) Lethal Concentration 50% ("LC50 ") is the drug concentration which reduces growth to -50%, i.e., removes half of the cells originally present at the beginning of the experiment.
# Each drug is tested at five (5) doses: 100-10-1-0.1-0.01 μg/ml. Percent Growths are calculated for each dose. The two (or three) doses with growth values above, below, (or near to) 50% growth are used to calculate the ED50 /GI50 using a linear regression formula. The log of the dose is used during the regression computation. […]
# as §1
# breast cancer cell lines = assay: NCI in vitro screen, breast cancer cell lines; assay type: cell-based, human; settings: two breast cancer cell lines
# Experimental: as §2
# (§4) Each drug is tested at five (5) doses: 100-10-1-0.1-0.01 μg/ml. Percent Growths are calculated for each dose. The two (or three) doses with growth values above, below, (or near to) 50% growth are used to calculate the ED50 /GI50 using a linear regression formula. The log of the dose is used during the regression computation. If no dose yields a growth value under 50%, the results are expressed as: ED50 >(highest dose). If no dose yields growth higher than 50% growth, then ED50 <(lowest dose). […]
# as §1
# CNS cancer cell lines = assay: NCI in vitro screen, CNS cancer cell lines; assay type: cell-based, human
# Experimental: as §2, §4, §1
# ovarian cancer cell line = assay: NCI in vitro screen, ovarian cancer cell line; assay type: cell-based, human; settings: one ovarian cancer cell line
# Experimental: as §2, §4, §1
# [3] = system: non-small cell lung cancer cell line; assay: NCI in vitro screen, non-small cell lung cancer cell line; assay type: cell-based, human; settings: one non-small cell lung cancer cell line
# Experimental: as §2, §4, §1
# five other cell lines = assay: NCI in vitro screen, five other cell lines; assay type: cell-based, human; settings: five other cell lines (not named)
# Experimental: as §3
# Each drug is tested at five (5) doses: 100-10-1-0.1-0.01 μg/ml. Percent Growths are calculated for each dose. The two (or three) doses with growth values above, below, (or near to) 50% growth are used to calculate the ED50 /GI50 using a linear regression formula. The log of the dose is used during the regression computation. If no dose yields a growth value under 50%, the results are expressed as: ED50 >(highest dose). If no dose yields growth higher than 50% growth, then ED50 <(lowest dose). Similar calculations are performed for the TGI at 0% growth, and at -50% growth for the LC50.
# as §1
Molecule,GI50 [1] [nM],LC50 [2],Total Growth Inhibition (TGI) (breast cancer cell lines),Total Growth Inhibition (TGI) (CNS cancer cell lines; one CNS cancer cell line),Total Growth Inhibition (TGI) (ovarian cancer cell line),Total Growth Inhibition (TGI) [3],LC50 (five other cell lines),Total Growth Inhibition (TGI) (CNS cancer cell lines; two CNS cancer cell lines)
"CC[C@H](C)[C@@H]1NC(=O)[C@H](Cc2ccccc2)NC(=O)[C@@H]2CCCN2C(=O)[C@H](Cc2ccccc2)NC(=O)[C@@H]2CCCN2C(=O)[C@H](CCC(N)=O)NC(=O)[C@@H]2CCCN2C(=O)[C@H](Cc2ccccc2)NC1=O [phakellistatin 11, cyclo-(Pro-Gln-Pro-Phe-Pro-Phe-Ile-Phe)] (cyclo(FIFPQPFP))",132,less than 10^-5 M per milliliter,less than 10^-7 M per milliliter,less than 10^-7 M per milliliter,less than 10^-7 M per milliliter,less than 10^-7 M per milliliter,less than 10^-5 M per milliliter,
"cyclo-(Pro-Leu-Thr-Pro-Ile-Pro-Trp-Val) (PLTPIPWV; head-to-tail cyclic) [phakellistatin 10, cyclic octapeptide isolated from the marine sponge Phakellia sp]",790,less than 10^-5 M per milliliter,less than 10^-6 M per milliliter,,,,,less than 10^-6 M per milliliter
